According to patent publication US20210338708A1, “METHOD FOR TREATMENT OF CORONAVIRUS INFECTION” (Renibus Therapeutics, Inc., priority 2020, published 2021):
Where “and” joins values, the source holds several entries; their conditions need not be identical. Equal entries are not always repeated. Where two headings read alike, the source gives them in different places.

Legend:
SARS-CoV-2 [1] = test: Reduction of virus-induced cytopathic effect (visual and neutral red) within secondary assay; type: cell-based, SARS-CoV-2 USA_WA1/2020; details: Vero 76, 1 hour pretreatment of compound and virus
Experimental: Confluent or near-confluent cell culture monolayers of Vero 76 cells are prepared in 96-well disposable microplates the day before testing. Cells are maintained in minimum essential medium (MEM) supplemented with 5% FBS. For antiviral assays the same medium is used but with FBS reduced to 2% and supplemented with 50-μg/ml gentamicin. Compounds are dissolved in DMSO, saline or the diluent requested by the submitter. […] The test compound is prepared at four serial log 10 concentrations, usually 0.1, 1.0, 10, and […] or μM (per sponsor preference). Lower concentrations are used when insufficient compound is supplied. Five microwells are used per dilution: three for infected cultures and two for uninfected toxicity cultures. Controls for the experiment consist of six microwells that are infected and not treated (virus controls) and six that are untreated and uninfected (cell controls) on every plate. A known active drug is tested in parallel as a positive control drug using the same method as is applied for test compounds. […]
Growth media is removed from the cells and the test compound is applied in 0.1 ml volume to wells at 2× concentration. […] The dye content in each well is quantified using a spectrophotometer at 540 nm wavelength. […]
Active compounds are further tested in a confirmatory assay. […] The incorporated dye content is quantified as described above to generate the EC50 and CC50 values.

dengue virus = details: by inhibiting synthesis of NSP1; cited from earlier work
Vero E6 cell line = Vero E6 cell line in the presence of SARS-CoV-2; NCATS/NIH data; cited from earlier work
yellow fever virus = details: by inhibiting synthesis of NSP1; cited from earlier work
SARS-CoV-2 [2] = type: cell-based, SARS-CoV-2 (2019-nCoV/USA-WA1/2020 strain)
SARS-CoV-2 [3] = test: Reduction of virus yield (Secondary VYR assay); type: cell-based, SARS-CoV-2 USA_WA1/2020; details: Vero 76, 1 hour pretreatment of compound and virus, read-out: TEST EC90
Experimental: Active compounds are further tested in a confirmatory assay. This assay is set up similar to the methodology described above only eight half-log 10 concentrations of inhibitor are tested for antiviral activity and cytotoxicity. After sufficient virus replication occurs (3 days for SARS-CoV-2), a sample of supernatant is taken from each infected well (three replicate wells are pooled) and tested immediately or held frozen at −80° C. for later virus titer determination. After maximum CPE is observed, the viable plates are stained with neutral red dye. The incorporated dye content is quantified as described above to generate the EC50 and CC50 values.
Virus yielded in the presence of test compound is titrated and compared to virus titers from the untreated virus controls. Titration of the viral samples (collected as described in the paragraph above) is performed by endpoint dilution (Reed, L. J., and H. Muench. “A Simple Method of Estimating Fifty Percent Endpoints.” Am J Hyg 27 (1938): 493-98.)
Serial 1/10 dilutions of virus are made and plated into 4 replicate wells containing fresh cell monolayers of Vero 76 cells. Plates are then incubated, and cells are scored for the presence or absence of virus after a distinct CPE is observed, and the CCID50 calculated using the Reed-Muench method. […]

SARS-CoV-2 [4] = type: cell-based, SARS-CoV-2 (2019-nCoV/USA-WA1/2020 strain); details: viral replication; for % reduction relative to virus control / Virus titer, Average: 11.11 μM; for Virus titer, Rep-1 to Rep-3: 100 μM
SARS-CoV-2 [5] = type: cell-based, SARS-CoV-2 (2019-nCoV/USA-WA1/2020 strain); details: for Plaque counts: replicates, direct inactivation, Vero E6, 24 h
SARS-CoV-2 [6] = type: cell-based, SARS-CoV-2 (2019-nCoV/USA-WA1/2020 strain); details: for Plaque counts: replicates, viral replication, Vero E6, 24 h

## C=CC1=C(C)c2cc3[n-]c(cc4[n-]c(cc5nc(cc1n2)C(C)=C5C=C)c(C)c4CCC(=O)O)c(CCC(=O)O)c3C.[Sn+2] [RBT-9, Stannous protoporphyrin]
SARS-CoV-2 [1]; neutral red, read-out: NR EC50
  EC50: 1500 nM
SARS-CoV-2 [1]; visual, read-out: VIS EC50
  EC50: 1500 nM
Dengue virus
  inhibition of viral infection: inhibit viral infection
Vero E6 cell line
  CC50: > 30000 nM
Yellow fever virus
  inhibition of viral infection: inhibit viral infection
Vero E6 cells
  cytopathic effect (CPE) of SnPP: did not observe a cytopathic effect (CPE)
SARS-CoV-2 [2]
  % reduction relative to virus control: 46.2%
  Virus titer, Average: 0.98×10^4 PFU/ml
SARS-CoV-2 [2]; 0.411 μM, direct inactivation
  % reduction relative to virus control: No reduction
  Virus titer, Average: 1.83 × 10^4 PFU/ml
  Virus titer, Rep-1 to Rep-3: 2.25 × 10^4 PFU/ml and 1.75 × 10^4 PFU/ml and 1.5 × 10^4 PFU/ml
SARS-CoV-2 [2]; 0.411 μM, direct inactivation, listed as SnPP
  % reduction relative to virus control: no reduction
SARS-CoV-2 [2]; 3.7 μM, direct inactivation
  % reduction relative to virus control: 98.6%
  Virus titer, Average: 0.25 × 10^4 PFU/ml
SARS-CoV-2 [2]; 3.7 μM, direct inactivation, listed as SnPP
  % reduction relative to virus control: About 98.6%
SARS-CoV-2 [3]
  EC90: 970 nM
SARS-CoV-2 [4]
  % reduction relative to virus control: 48%
  Virus titer, Average: 2 × 10^4 pfu/ml
  Virus titer, Rep-1 to Rep-3: not detected
SARS-CoV-2 [4]; listed as SnPP
  % reduction relative to virus control: about 48%
  Virus titer, Average: 2×10^4
  Virus titer, Rep-1 to Rep-3: could not be detected
SARS-CoV-2 [5]; 0.005 μM
  Plaque counts: 203 and 304 and 260 and 236
SARS-CoV-2 [5]; 0.015 μM
  Plaque counts: 189 and 212
SARS-CoV-2 [5]; 0.046 μM
  Plaque counts: 222 and 332 and 256 and 196
SARS-CoV-2 [5]; 0.14 μM
  Plaque counts: 217 and 354 and 230 and 174
SARS-CoV-2 [5]; 0.41 μM
  Plaque counts: 259 and 194 and 205 and 235
SARS-CoV-2 [5]; 1.23 μM
  Plaque counts: 117 and 64 and 132 and 189
SARS-CoV-2 [5]; 3.70 μM
  Plaque counts: 0 (3×) and 48
SARS-CoV-2 [5]; 11.11 μM
  Plaque counts: 0
SARS-CoV-2 [5]; 33.33 μM
  Plaque counts: 0
SARS-CoV-2 [5]; 100 μM
  Plaque counts: 0
SARS-CoV-2 [5]; read-out: mean EC50, direct SARS-CoV-2 inactivation
  EC50: 1320 nM
SARS-CoV-2 [6]; 0.005 μM
  Plaque counts: 363 and 342 and 223 and 294
SARS-CoV-2 [6]; 0.015 μM
  Plaque counts: 136 and 228 and 172 and 164
SARS-CoV-2 [6]; 0.046 μM
  Plaque counts: 170 and 167 and 182 and 259
SARS-CoV-2 [6]; 0.14 μM
  Plaque counts: 293 and 228 and 264 and 211
SARS-CoV-2 [6]; 0.41 μM
  Plaque counts: 292 and 243 and 309 and 304
SARS-CoV-2 [6]; 1.23 μM
  Plaque counts: 290 and 286 and 320 and 294
SARS-CoV-2 [6]; 3.70 μM
  Plaque counts: 130 and 125 (2×) and 153
SARS-CoV-2 [6]; 11.11 μM
  Plaque counts: 143 and 134 and 129 and 145
SARS-CoV-2 [6]; 33.33 μM
  Plaque counts: 89 and 99 and 78 and 79
SARS-CoV-2 [6]; 100 μM
  Plaque counts: 15 (2×) and 12 and 7
SARS-CoV-2 [6]; read-out: EC50, SARS-CoV-2 replication
  EC50: 45700 nM
Vero 76 cells
  CC50: 39000 nM
Vero 76 cells; read-out: VIS CC50, visual, Vero 76
  CC50: 27000 nM

## CCC(CC)COC(=O)[C@H](C)N[P@](=O)(OC[C@H]1O[C@@](C#N)(c2ccc3c(N)ncnn23)[C@H](O)[C@@H]1O)Oc1ccccc1 [Remdesivir, reference compound]
SARS-CoV-2 [6]; 0.003 μM
  Plaque counts: 353 and 324
SARS-CoV-2 [6]; 0.008 μM
  Plaque counts: 195
SARS-CoV-2 [6]; 0.023 μM
  Plaque counts: 245
SARS-CoV-2 [6]; 0.07 μM
  Plaque counts: 233 and 192
SARS-CoV-2 [6]; 0.21 μM
  Plaque counts: 212 and 200
SARS-CoV-2 [6]; 0.62 μM
  Plaque counts: 274 and 270
SARS-CoV-2 [6]; 1.85 μM
  Plaque counts: 64 and 76
SARS-CoV-2 [6]; 5.56 μM
  Plaque counts: 0
SARS-CoV-2 [6]; 16.67 μM
  Plaque counts: 0
SARS-CoV-2 [6]; 50 μM
  Plaque counts: 0
